Data from PMC7180456, “Multitarget Anticancer Agents Based on Histone Deacetylase and Protein Kinase CK2 Inhibitors” (Molecules, 2020).

Assays:
HDAC6 = molecular target: T1, HDAC6 (Homo sapiens, UniProt Q9UBN7); experiment: HDAC6 inhibition, fluorometric method (Enzo Fluorometric Drug Discovery Assay Kit); assay type: biochemical; conditions: read-out: Inhibitory activity IC50 on HDAC6
T1 construct: purchased Enzo Life Sciences, Inc
T1 sequence (Q9UBN7 1-1215): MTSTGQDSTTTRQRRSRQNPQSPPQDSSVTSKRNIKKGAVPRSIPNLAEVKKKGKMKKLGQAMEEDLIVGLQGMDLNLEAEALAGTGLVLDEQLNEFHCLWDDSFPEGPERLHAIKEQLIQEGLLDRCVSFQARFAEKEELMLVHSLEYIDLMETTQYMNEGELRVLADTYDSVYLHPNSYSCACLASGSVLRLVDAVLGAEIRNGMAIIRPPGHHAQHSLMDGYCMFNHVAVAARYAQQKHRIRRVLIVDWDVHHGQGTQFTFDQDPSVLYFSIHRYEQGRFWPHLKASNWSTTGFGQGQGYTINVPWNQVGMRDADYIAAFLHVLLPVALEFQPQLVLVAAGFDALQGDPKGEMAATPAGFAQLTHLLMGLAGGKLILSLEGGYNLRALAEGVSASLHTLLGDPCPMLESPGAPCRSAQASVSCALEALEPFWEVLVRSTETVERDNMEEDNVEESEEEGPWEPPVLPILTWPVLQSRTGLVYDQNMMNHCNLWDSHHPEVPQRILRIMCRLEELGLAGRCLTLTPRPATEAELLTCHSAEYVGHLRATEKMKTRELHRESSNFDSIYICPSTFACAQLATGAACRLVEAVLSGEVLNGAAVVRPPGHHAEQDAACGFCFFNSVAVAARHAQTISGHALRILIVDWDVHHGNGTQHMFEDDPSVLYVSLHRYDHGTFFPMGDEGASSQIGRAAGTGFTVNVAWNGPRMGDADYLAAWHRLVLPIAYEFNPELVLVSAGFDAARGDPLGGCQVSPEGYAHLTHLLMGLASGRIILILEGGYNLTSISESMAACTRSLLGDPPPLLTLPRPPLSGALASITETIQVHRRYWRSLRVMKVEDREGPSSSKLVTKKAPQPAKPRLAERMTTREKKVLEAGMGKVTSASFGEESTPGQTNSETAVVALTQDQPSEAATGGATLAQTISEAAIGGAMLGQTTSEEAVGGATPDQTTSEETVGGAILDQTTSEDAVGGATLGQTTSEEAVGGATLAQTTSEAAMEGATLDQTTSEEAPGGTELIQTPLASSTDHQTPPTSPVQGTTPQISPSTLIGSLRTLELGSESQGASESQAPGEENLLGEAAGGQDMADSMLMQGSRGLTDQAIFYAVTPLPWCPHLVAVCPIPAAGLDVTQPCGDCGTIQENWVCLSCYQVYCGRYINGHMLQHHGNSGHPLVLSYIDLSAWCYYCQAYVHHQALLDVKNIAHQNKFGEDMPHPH
Procedure: For this reason, we analyzed the activity of 15 and 19, together with other compounds from the alkyl and triazole series in HDAC6, tested using a fluorometric method (Table 1).
15 µL of HDAC1 (0.4 µg/well) or HDAC6 (0.5 µg/well) were incubated at 37 °C for 30 minutes with 10 µL of inhibitor diluted in 5% DMSO and 25 µL of fluorogenic substrate (0.05 µL/well of 5 mM solution). Reactions were stopped with the developer and trichostatin A, diluted in buffer without BSA, and the plate was incubated at 30 °C for 45 min, followed by measuring the fluorescence (Ex. 360 nm, Em. 450 nm, Fluoroskan, Thermo Scientific).

Jurkat T-leukemia cells = experiment: Annexin V-PI double staining, FACS; assay type: cell-based, human; conditions: 10 µM and 30 µM, 24 h, comparison between compounds
Procedure: To confirm the pro-apoptotic activity of the studied inhibitors, Annexin V-PI double staining was addressed (Figure 7 down).
For cell death analyses, cells were stained with FITC-conjugated annexin V and propidium iodide (PI) using an apoptosis detection kit (BD Biosciences, San Jose, CA), according to the manufacturer’s instructions. In particular, 24 h after the addition of various concentration of CK2-HDAC inhibitors, Jurkat T-leukemia cells were centrifuged at 2,000 rpm, washed twice with 1x PBS, and incubated for 15 minutes in Annexin V binding buffer (BD Pharmingen, USA) containing 1/50 volume of FITC-conjugated Annexin V solution and PI (50 µg/mL). Then samples were diluted two times by appropriate volume of Annexin V binding buffer (BD Pharmingen, USA) and immediately measured on FL1/FL2 (FITC-PI) channels of FACScan flow cytometer (Becton Dickinson, USA). Analysis of the obtained results was carried out using the Cytomation Summit Software v3.1 (Cytomation Inc., USA).

[1] = tested on: HL-60, HL-60/adr and HL-60/vinc leukemia cells; experiment: DCFDA assay, hydrogen peroxide production; assay type: cell-based, human; conditions: 10 µM and 30 µM, 24 h
Text: To reveal potential mechanisms underlying this phenomenon, we studied the impact of the selected compounds on ROS production in both sensitive and MDR cell lines (Figure S8). […] As mitochondria are considered the main source of cellular superoxides, the next aim of our studies was to check whether CK2-HDAC inhibitors induce oxidative stress in tumor cells via depolarization of mitochondria, using the JC-1 assay. However, it was technically impossible to measure JC-1 accumulation on HL-60/adr and HL-60/vinc cells, because JC-1 is a substrate for these ABC-transporter proteins and is actively pumped out into extracellular medium.
Cellular ROS contents were measured by incubating control or drug-treated cells with fluorescent dyes dihydrodichlorofluorescein diacetate (DCFDA, detecting mainly H2O2) and dihydroethidium (DHE, O2^●−-specific) in concentrations of 10 μM at 37 °C for 30 minutes. After incubation with the dyes, cells were washed with PBS and immediately analyzed at FL1 (DCFDA) or FL2 channel (DHE) of FACSCalibur flow cytometer (BD Biosciences, San Jose, CA).

[2] = Cytotoxicity, trypan blue exclusion assay, 24 h (pseudonormal cells); conditions: human, HEK293 embryonic kidney cells (pseudonormal)
Procedure: Walter Berger, Institute of Cancer Research, Vienna Medical University. Human embryonal kidney cells of HEK293 line were obtained from cell culture collection of R.E. Kavetsky Institute of Experimental Pathology, Oncology and Radiobiology, National Academy of Sciences of Ukraine (Kyiv, Ukraine).
Cells were seeded (5 × 10^5/mL for leukemia cells and 1 × 10^5/mL for carcinoma cells) into 24-well tissue culture plates (Greiner Bio-one, Frickenhausen, Germany) and were permitted to adhere and grow for 24 h before the experiment. Short-term (24 h) cytotoxic effect of antitumor drugs was studied under the Evolution 300 Trino microscope (Delta Optical, Nowe Osiny, Poland) after cell staining with trypan blue dye (0.1%).
Final concentration of DMSO in cell culture was 0.5% or less.
All experiments were performed in triplicate and repeated three times. Statistical analysis of data was conducted in GraphPad Prism 7.0 Software (GraphPad Software, Inc.) using Student’s t test. Statistical significance was set at P ≤ 0.05. Evaluation of LC50 values of each compound was done by built-in functions of GraphPad Prism (non-linear regression, curve fit, [Inhibitor] vs. normalized response - Variable slope).

[3] = LC50 Values of Compounds for Cell Line, HEK293, Table 2, trypan blue, 24 h, M ± SD
[4] = LC50 values of compounds for cell line, HEK293, supplement Table 4S, M±SD

SMILES	IC50 (HDAC6)	number of annexin V-positive (apoptotic) cells (Jurkat T-leukemia cells)	impact on hydrogen peroxide production [1]	CC50 at 24 h [2, 3]	CC50 at 24 h [2, 4]
CN(C)c1nc2c(Br)c(Br)c(Br)c(Br)c2n1CCc1cn(CCC(=O)NO)nn1 [Compound 7c, N-Hydroxy-3-(4-(2-(4,5,6,7-tetrabromo-2-(dimethylamino)-1H-benzo[d]imidazol-1-yl)ethyl)-1H-1,2,3-triazol-1-yl)propanamide]	30.7 µM	significant decrease	hydrogen peroxide burst	42.7 ± 8.65 µM	23.3 µM
O=C(NO)c1ccc(Cn2nc3c(Br)c(Br)c(Br)c(Br)c3n2)cc1 [Compound 15a, N-Hydroxy-4-((tetrabromo-2H-benzo[d][1,2,3]triazol-2-yl)methyl)benzamide]	11 µM			33.7 ± 7.52 µM	> 30 µM
CN(C)c1nc2c(Br)c(Br)c(Br)c(Br)c2n1Cc1ccc(C(=O)NO)cc1 [Compound 19, N-Hydroxy-4-((4,5,6,7-tetrabromo-2-(dimethylamino)-1H-benzo[d]imidazol-1-yl)methyl)benzamide]	20.6 µM			33.4 ± 11.8 µM	24.5 µM
